Experimental data reported in PubChem BioAssay (NCI).
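Following 48 hours of exposure in 96-well plates, responses at five concentrations were used to interpolate endpoints linearly. GI50: concentration for 50% inhibition of growth. TGI: concentration producing complete growth inhibition.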

Legend:
Assay in all cases: DTP human tumour cell line panel, 48 h
[1] = system: 786-0 renal
[2] = system: A498 renal
[3] = system: A549 NSCLC
[4] = system: ACHN renal
[5] = system: BT-549 breast
[6] = system: CAKI-1 renal
[7] = system: EKVX NSCLC
[8] = system: HCC-2998 colon
[9] = system: HCT-15 colon
[10] = system: HL-60(TB) leukemia
[11] = system: HS 578T breast
[12] = system: HT29 colon
[13] = system: K-562 leukemia
[14] = system: LOX IMVI melanoma
[15] = system: M14 melanoma
[16] = system: MCF7 breast
[17] = system: MOLT-4 leukemia
[18] = system: NCI-H226 lung
[19] = system: NCI-H23 lung
[20] = system: NCI-H460 lung
[21] = system: NCI/ADR-RES ovarian
[22] = system: OVCAR-3 ovarian
[23] = system: OVCAR-4 ovarian
[24] = system: OVCAR-5 ovarian
[25] = system: OVCAR-8 ovarian
[26] = system: PC-3 prostate
[27] = system: RPMI-8226 leukemia
[28] = system: SF-268 CNS
[29] = system: SF-539 CNS
[30] = system: SK-MEL-28 melanoma
[31] = system: SK-OV-3 ovarian
[32] = system: SN12C renal
[33] = system: SNB-19 CNS
[34] = system: SNB-75 CNS
[35] = system: SR leukemia
[36] = system: SW-620 colon
[37] = system: TK-10 renal
[38] = system: U251 CNS
[39] = system: UACC-62 melanoma
[40] = system: UO-31 renal
[41] = system: CCRF-CEM leukemia
[42] = system: COLO 205 colon
[43] = system: DU-145 prostate
[44] = system: HCT-116 colon
[45] = system: HOP-62 NSCLC
[46] = system: KM12 colon
[47] = system: MALME-3M melanoma
[48] = system: MDA-MB-231 breast
[49] = system: MDA-MB-435
[50] = system: NCI-H522 lung
[51] = system: SF-295 CNS
[52] = system: SK-MEL-2 melanoma
[53] = system: SK-MEL-5 melanoma
[54] = system: T-47D breast
[55] = system: UACC-257 melanoma

Question: What does the source list for `COc1ccc2c(c1)C/C(=C\c1ccc(O)c(OC)c1)C2=O`?
Answer: TGI [1]: > 100 µM; TGI [2]: > 100 µM; TGI [3]: > 100 µM; TGI [4]: > 100 µM; TGI [5]: > 100 µM; TGI [6]: > 100 µM; TGI [7]: > 100 µM; TGI [8]: > 100 µM; TGI [9]: > 100 µM; TGI [10]: > 100 µM; TGI [11]: > 100 µM; TGI [12]: > 100 µM; TGI [13]: > 100 µM; TGI [14]: > 100 µM; TGI [15]: > 100 µM; TGI [16]: > 100 µM; TGI [17]: > 100 µM; TGI [18]: > 100 µM; TGI [19]: > 100 µM; TGI [20]: > 100 µM; TGI [21]: > 100 µM; TGI [22]: > 100 µM; TGI [23]: > 100 µM; TGI [24]: > 100 µM; TGI [25]: > 100 µM; TGI [26]: > 100 µM; TGI [27]: > 100 µM; TGI [28]: > 100 µM; TGI [29]: > 100 µM; TGI [30]: > 100 µM; TGI [31]: > 100 µM; TGI [32]: > 100 µM; TGI [33]: > 100 µM; TGI [34]: > 100 µM; TGI [35]: > 100 µM; TGI [36]: > 100 µM; TGI [37]: > 100 µM; TGI [38]: > 100 µM; TGI [39]: > 100 µM; TGI [40]: > 100 µM

Question: With `O=C(COc1cccc(/C=C2\COc3ccccc3C2=O)c1)Nc1nccs1` as the molecule, how does the GI50 [1] read?
Answer: 2.05 µM

Question: What about the TGI [1] of the same molecule?
Answer: 4.14 µM

Question: And the GI50 [2]?
Answer: 15.7 µM

Question: And the TGI [2]?
Answer: 29.2 µM

Question: What about the GI50 [3] of the same molecule?
Answer: 2.41 µM

Question: And the TGI [3]?
Answer: 6.22 µM

Question: And the GI50 [4]?
Answer: 1.86 µM

Question: What about the TGI [4] of the same molecule?
Answer: 3.55 µM

Question: And the GI50 [6]?
Answer: 1.61 µM

Question: What about the TGI [6] of the same molecule?
Answer: 3.56 µM

Question: What about the GI50 [41] of the same molecule?
Answer: 1.63 µM

Question: What about the TGI [41] of the same molecule?
Answer: 4.91 µM

Question: And the GI50 [42]?
Answer: 2.26 µM

Question: What about the TGI [42] of the same molecule?
Answer: 5.24 µM

Question: What about the GI50 [43] of the same molecule?
Answer: 1.96 µM

Question: What about the TGI [43] of the same molecule?
Answer: 3.37 µM

Question: And the GI50 [7]?
Answer: 4.11 µM

Question: What about the TGI [7] of the same molecule?
Answer: 17.1 µM

Question: What about the GI50 [8] of the same molecule?
Answer: 1.95 µM

Question: And the TGI [8]?
Answer: 3.48 µM

Question: And the GI50 [44]?
Answer: 1.76 µM

Question: And the TGI [44]?
Answer: 3.15 µM

Question: What about the GI50 [9] of the same molecule?
Answer: 3.11 µM

Question: And the TGI [9]?
Answer: 10.2 µM

Question: What about the GI50 [10] of the same molecule?
Answer: 1.59 µM

Question: What about the TGI [10] of the same molecule?
Answer: 3.44 µM

Question: And the GI50 [45]?
Answer: 4.11 µM

Question: What about the TGI [45] of the same molecule?
Answer: 15.9 µM

Question: What about the GI50 [11] of the same molecule?
Answer: 2.67 µM

Question: What about the TGI [11] of the same molecule?
Answer: 10.9 µM

Question: What about the GI50 [12] of the same molecule?
Answer: 1.94 µM

Question: And the TGI [12]?
Answer: 3.72 µM

Question: What about the GI50 [13] of the same molecule?
Answer: 1.44 µM

Question: And the TGI [13]?
Answer: 29.2 µM

Question: What about the GI50 [46] of the same molecule?
Answer: 1.71 µM

Question: And the TGI [46]?
Answer: 3.15 µM

Question: What about the GI50 [14] of the same molecule?
Answer: 1.82 µM

Question: What about the TGI [14] of the same molecule?
Answer: 3.4 µM

Question: And the GI50 [15]?
Answer: 1.85 µM

Question: And the TGI [15]?
Answer: 3.71 µM

Question: And the GI50 [47]?
Answer: 1.82 µM

Question: And the TGI [47]?
Answer: 3.49 µM

Question: And the GI50 [16]?
Answer: 1.24 µM

Question: What about the TGI [16] of the same molecule?
Answer: 5.69 µM

Question: What about the GI50 [48] of the same molecule?
Answer: 3.55 µM

Question: And the TGI [48]?
Answer: 17 µM

Question: And the GI50 [49]?
Answer: 2.51 µM

Question: And the TGI [49]?
Answer: 7.53 µM

Question: And the GI50 [18]?
Answer: 4.62 µM

Question: What about the TGI [18] of the same molecule?
Answer: 25.1 µM

Question: And the GI50 [19]?
Answer: 1.95 µM

Question: What about the TGI [19] of the same molecule?
Answer: 3.94 µM

Question: And the GI50 [20]?
Answer: 6.92 µM

Question: What about the TGI [20] of the same molecule?
Answer: 31.6 µM

Question: What about the GI50 [50] of the same molecule?
Answer: 1.52 µM

Question: And the TGI [50]?
Answer: 3.19 µM

Question: What about the GI50 [21] of the same molecule?
Answer: 4.97 µM

Question: What about the TGI [21] of the same molecule?
Answer: 21.8 µM

Question: And the GI50 [22]?
Answer: 2.03 µM

Question: And the TGI [22]?
Answer: 3.51 µM

Question: What about the GI50 [23] of the same molecule?
Answer: 3.99 µM

Question: What about the TGI [23] of the same molecule?
Answer: 14.3 µM

Question: What about the GI50 [24] of the same molecule?
Answer: 2.65 µM

Question: What about the TGI [24] of the same molecule?
Answer: 10.1 µM

Question: And the GI50 [25]?
Answer: 3.4 µM

Question: And the TGI [25]?
Answer: 11.2 µM

Question: And the GI50 [26]?
Answer: 1.37 µM

Question: And the TGI [26]?
Answer: 3.46 µM

Question: What about the GI50 [27] of the same molecule?
Answer: 1.29 µM

Question: And the TGI [27]?
Answer: 3.69 µM

Question: What about the GI50 [28] of the same molecule?
Answer: 1.95 µM

Question: What about the TGI [28] of the same molecule?
Answer: 3.69 µM

Question: And the GI50 [51]?
Answer: 1.73 µM

Question: And the TGI [51]?
Answer: 3.26 µM

Question: And the GI50 [29]?
Answer: 14.7 µM

Question: What about the TGI [29] of the same molecule?
Answer: 31.2 µM

Question: And the GI50 [52]?
Answer: 1.88 µM

Question: And the TGI [52]?
Answer: 5.05 µM

Question: And the GI50 [30]?
Answer: 2.42 µM

Question: What about the TGI [30] of the same molecule?
Answer: 5.44 µM

Question: What about the GI50 [53] of the same molecule?
Answer: 5.27 µM

Question: What about the TGI [53] of the same molecule?
Answer: 19.5 µM

Question: And the GI50 [31]?
Answer: 17.4 µM

Question: What about the TGI [31] of the same molecule?
Answer: 31.1 µM

Question: What about the GI50 [32] of the same molecule?
Answer: 2.08 µM

Question: What about the TGI [32] of the same molecule?
Answer: 5.25 µM

Question: What about the GI50 [33] of the same molecule?
Answer: 9.93 µM

Question: And the TGI [33]?
Answer: 22.1 µM

Question: What about the GI50 [34] of the same molecule?
Answer: 12.2 µM

Question: And the TGI [34]?
Answer: 24.6 µM

Question: What about the GI50 [35] of the same molecule?
Answer: 1.03 µM

Question: What about the TGI [35] of the same molecule?
Answer: 2.76 µM

Question: And the GI50 [36]?
Answer: 1.97 µM

Question: And the TGI [36]?
Answer: 3.98 µM

Question: What about the GI50 [54] of the same molecule?
Answer: 3.13 µM

Question: And the TGI [54]?
Answer: 12.5 µM

Question: What about the GI50 [37] of the same molecule?
Answer: 3.05 µM

Question: What about the TGI [37] of the same molecule?
Answer: 5.52 µM

Question: And the GI50 [38]?
Answer: 1.73 µM

Question: What about the TGI [38] of the same molecule?
Answer: 3.11 µM

Question: What about the GI50 [55] of the same molecule?
Answer: 2.06 µM

Question: And the TGI [55]?
Answer: 5.28 µM

Question: And the GI50 [39]?
Answer: 1.69 µM

Question: What about the TGI [39] of the same molecule?
Answer: 3.76 µM

Question: And the GI50 [40]?
Answer: 1.52 µM

Question: What about the TGI [40] of the same molecule?
Answer: 2.91 µM
